Results from PMC10762078, “Role of UPF1-LIN28A interaction during early differentiation of pluripotent stem cells” (Nature Communications, 2024).
Ends that are not written are not given here.

Molecular target: T1, His-LIN28A (Homo sapiens, UniProt Q9H9Z2)
T1 construct: purchased LS-bio LS-G637
T1 sequence (Q9H9Z2 1-209): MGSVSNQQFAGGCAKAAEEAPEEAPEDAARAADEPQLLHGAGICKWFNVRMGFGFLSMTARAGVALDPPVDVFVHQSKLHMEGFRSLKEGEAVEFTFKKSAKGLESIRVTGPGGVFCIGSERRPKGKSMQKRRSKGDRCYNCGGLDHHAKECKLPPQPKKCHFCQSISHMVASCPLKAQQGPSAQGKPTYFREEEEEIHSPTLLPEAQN
Experiment: SPR kinetic evaluation of peptide binding to immobilised His-LIN28A
Procedure: For ligand immobilisation, the nitrilotriacetic acid (NTA) surface gold sensor chip (icluebio) was activated with 5 mM NiCl2 (Xantec) at a flow rate of 30 μL/min, following equalisation with 1× HBS-T buffer. His-LIN28A (LS-bio, LS-G637) was used as a ligand protein and was applied to a sensor chip at a flow rate of 10 μL/min for 40 min after dilution in 1× HEPES-buffered saline (HBS-T) buffer at a 1/20 ratio. Approximately 1000 resonance units (RU) were bonded to the sensor chip after ligand immobilisation. RU was measured using iMSPR-ProX (icluebio). An indigenous NTA sensor chip was used as a reference channel.
Kinetics assessment was performed for peptides with RU values greater than 5.

With KKKWCRKKKSSADEKRYRALKRTAERELLMNA [P8] the kd (His-LIN28A ligand, peptide analyte 30 to 0.95 μM, HBS-T) was 0.0137 s⁻¹, the kon (His-LIN28A ligand, peptide analyte 30 to 0.95 μM, HBS-T, read-out: ka) was 2640 M⁻¹ s⁻¹ and the “binding affinity to LIN28A” value (diverse concentrations) was “high binding affinity to LIN28A”.
